Laboratory results as given in ChEMBL document CHEMBL5331079, “Novel thiazolidines of potential anti-proliferation properties against esophageal squamous cell carcinoma via ERK pathway” (Eur J Med Chem, 2023).
Values belong to the compound of their own block, whether it stands above or below them. Active and inactive are the calls of the source. The calls are words filed in the database; no cut-off is given here.

Legend:
[1] = tested on: KYSE-30; test: Antiproliferative activity against human KYSE-30 cells assessed as inhibition of cell growth incubated for 72 hrs by MTT assay; assay type: functional, cell-based; details: KYSE-30, 72 h
[2] = tested on: MCF7; test: Antiproliferative activity against human MCF7 cells assessed as inhibition of cell growth incubated for 96 hrs by MTT assay; assay type: functional, cell-based; details: MCF7, 96 h
[3] = Antiproliferative activity against human NES-G4T cells assessed as inhibition of cell growth incubated for 72 hrs by MTT assay; assay type: toxicity, cell-based
[4] = tested on: NES-G4T; test: Induction of apoptosis in human NES-G4T cells assessed as effect on ratio of ERK phosphorylation incubated for 4 to 12 hrs by Western blotting analysis; assay type: functional, cell-based; details: time 4-12 hrs
[5] = tested on: KYSE-30; test: Induction of apoptosis in human KYSE-30 cells assessed as nuclear fragmentation at 10 uM incubated upto 72 hrs by DAPI staining based confocal laser scanner microscopy analysis; assay type: functional, cell-based
[6] = tested on: KYSE-30; test: Antiproliferative activity against human KYSE-30 cells assessed as reduction of cell viability at 1.25 to 100 uM incubated for 72 hrs by MTT assay; assay type: functional, cell-based; details: dose 1.25-100 µM
[7] = Antiproliferative activity against human NES-G4T cells assessed as reduction of cell viability at 1.25 to 100 uM incubated for 72 hrs by MTT assay; assay type: toxicity, cell-based; details: dose 1.25-100 µM
[8] = tested on: KYSE-150 cell line; test: Induction of apoptosis in human KYSE-150 cell line assessed as downregulation of ERK protein level incubated for 4 to 12 hrs by Western blotting analysis; assay type: functional, cell-based; details: time 4-12 hrs, TDE = time-dependent effect
[9] = tested on: KYSE-150 cell line; test: Induction of apoptosis in human KYSE-150 cell line assessed as chromatin condensation at 10 uM incubated upto 72 hrs by DAPI staining based confocal laser scanner microscopy analysis; assay type: functional
[10] = tested on: KYSE-150 cell line; test: Induction of apoptosis in human […] cell line assessed as loss of nuclei integrity at 10 uM incubated for 72 hrs by DAPI staining based confocal laser scanner microscopy analysis; assay type: functional
[11] = tested on: KYSE-30; test: Induction of apoptosis in human KYSE-30 cells assessed as loss of nuclei integrity at 10 uM incubated for 72 hrs by DAPI staining based confocal laser scanner microscopy analysis; assay type: functional, cell-based
[12] = tested on: KYSE-150 cell line; test: Antiproliferative activity against human KYSE-150 cell line assessed as inhibition of cell growth incubated for 72 hrs by MTT assay; assay type: functional, cell-based; details: KYSE-150, 72 h
[13] = tested on: KYSE-30; test: Induction of apoptosis in human KYSE-30 cells assessed as chromatin condensation at 10 uM incubated upto 72 hrs by DAPI staining based confocal laser scanner microscopy analysis; assay type: functional, cell-based
[14] = tested on: KYSE-150 cell line; test: Induction of apoptosis in human KYSE-150 cell line assessed as nuclear fragmentation at 10 uM incubated upto 72 hrs by DAPI staining based confocal laser scanner microscopy analysis; assay type: functional
[15] = tested on: HET-1A; test: Antiproliferative activity against human HET-1A cells assessed as reduction of cell viability at 1.25 to 100 uM incubated for 72 hrs by MTT assay; assay type: toxicity, cell-based; details: dose 1.25-100 µM
[16] = tested on: KYSE-150 cell line; test: Inhibition of cell growth in human KYSE-150 cell line at 10 uM incubated for 72 hrs by MTT assay relative to control; assay type: functional
[17] = tested on: KYSE-150 cell line; test: Induction of apoptosis in human KYSE-150 cell line assessed as effect on ratio of ERK phosphorylation incubated for 4 to 12 hrs by Western blotting analysis; assay type: functional, cell-based; details: time 4-12 hrs
[18] = tested on: KYSE-150 cell line; test: Induction of apoptosis in human KYSE-150 cell line assessed as effect on ratio of AKT phosphorylation incubated for 4 to 12 hrs by Western blotting analysis; assay type: functional, cell-based; details: time 4-12 hrs
[19] = Antiproliferative activity against human HET-1A cells assessed as inhibition of cell growth incubated for 72 hrs by MTT assay; assay type: toxicity, cell-based
[20] = tested on: KYSE-150 cell line; test: Antiproliferative activity against human KYSE-150 cell line assessed as reduction of cell viability at 1.25 to 100 uM incubated for 72 hrs by MTT assay; assay type: functional, cell-based; details: dose 1.25-100 µM
[21] = tested on: NES-G4T; test: Induction of apoptosis in human NES-G4T cells assessed as effect on ratio of AKT phosphorylation incubated for 4 to 12 hrs by Western blotting analysis; assay type: functional, cell-based; details: time 4-12 hrs

SMILES: COc1ccc(/N=C2/NC(C)(C)/C(=C/c3ccc(Br)cc3)S2)cc1
IC50 [1]: 14.2 µM

SMILES: CC1(C)N/C(=N/c2ccc([N+](=O)[O-])cc2)S/C1=C\c1ccc(Br)cc1
IC50 [1]: 31.5 µM

IC50 [2]: 0.5 µM
SMILES: COc1ccc(/C=C2\S/C(=N\c3ccccc3)N(C)C2C)cc1 (stereo not given)

SMILES: COc1ccc(/N=C2/NC(C)(C)/C(=C/c3ccc(Br)cc3)S2)c([N+](=O)[O-])c1
IC50 at 72 h [3]: 202 µM | Activity [4]: inactive | Activity [5]: Active | Activity [6]: Dose-Dependent Effect | Activity [7]: Toxic | Activity [8]: Tde | Activity [9]: Active | Activity [10]: Active | Activity [11]: Active | IC50 [12]: 10.1 µM | Activity [13]: Active | Activity [14]: Active | IC50 [1]: 16.8 µM | Activity [15]: Toxic | inhibition at 10 µM [16]: 71% | Activity [17]: inactive | Activity [18]: inactive | IC50 at 72 h [19]: 13 µM | Activity [20]: Dose-Dependent Effect | Activity [21]: inactive

SMILES: Cc1ccc(/N=C2/NC(C)(C)/C(=C/c3ccc(Br)cc3)S2)cc1Cl
IC50 [1]: 65.4 µM

SMILES: Cc1ccc(/N=C2/NC(C)(C)/C(=C/c3ccc(Br)cc3)S2)cc1
IC50 [1]: 64.3 µM

IC50 [2]: 0.5 µM
SMILES: CNC(C)C#Cc1ccc(OC)cc1 (stereo not given)

SMILES: CC1(C)N/C(=N/c2ccccc2)S/C1=C\c1ccc(Br)cc1
IC50 [1]: 18.6 µM

SMILES: CC1(C)N/C(=N/c2ccc(Cl)cc2)S/C1=C\c1ccc(Br)cc1
IC50 [1]: 64.2 µM

SMILES: CC1(C)N/C(=N/c2ccc(F)cc2)S/C1=C\c1ccc(Br)cc1
IC50 [1]: 10.6 µM

SMILES: CC1(C)N/C(=N/c2ccc(Br)cc2)S/C1=C\c1ccc(Br)cc1
IC50 [1]: 13.2 µM
